This is an account of results in patent US20250034216A1, “STEREOSELECTIVE COVALENT LIGANDS FOR ONCOGENIC AND IMMUNOLOGICAL PROTEINS” (The Scripps Research Institute, priority 2021, published 2025).

Experiment in all cases: IA-DTB cysteine engagement
Holding throughout (format): binding
What all share (conditions): 22Rv1 cells, 20 μM probe, 1 h, relative to DMSO

One assay deals with T1, TRMT61A_C209 (Homo sapiens, UniProt Q96FX7).
T1 construct: endogenous in cells; host or cells: 22Rv1
In outline: (§1)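 First, cells are exposed to electrophilic probes in situ. Next, lysates are labeled with IA-DTB (1 h, ambient temperature), reduced, alkylated and trypsin-digested. Then, IA-DTB peptides are enriched on streptavidin, TMT-labeled and analyzed, with ratios taken against DMSO channels.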

In a further assay the target is T2, COX6B1_C54 (Homo sapiens, UniProt P14854).
T2 construct: endogenous in cells; host or cells: 22Rv1
In outline: as §1

A further assay deals with T3, PLPPR2_C207 (Homo sapiens, UniProt Q96GM1).
T3 construct: endogenous in cells; host or cells: 22Rv1
T3 sequence (Q96GM1 1-343): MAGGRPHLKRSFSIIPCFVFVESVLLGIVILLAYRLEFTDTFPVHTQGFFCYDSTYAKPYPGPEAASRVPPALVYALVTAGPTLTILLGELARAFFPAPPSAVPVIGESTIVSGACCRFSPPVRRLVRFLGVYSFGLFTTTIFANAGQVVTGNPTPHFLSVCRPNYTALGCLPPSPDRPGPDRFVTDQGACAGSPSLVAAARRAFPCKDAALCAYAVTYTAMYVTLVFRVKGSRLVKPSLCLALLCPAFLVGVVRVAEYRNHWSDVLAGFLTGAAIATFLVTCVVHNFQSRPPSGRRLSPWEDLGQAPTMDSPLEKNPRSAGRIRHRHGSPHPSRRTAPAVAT
In outline:
as §1

A further assay deals with T4, PNPLA8_C100 (Homo sapiens, UniProt Q9NP80).
T4 construct: endogenous in cells; host or cells: 22Rv1
T4 sequence (Q9NP80 1-782): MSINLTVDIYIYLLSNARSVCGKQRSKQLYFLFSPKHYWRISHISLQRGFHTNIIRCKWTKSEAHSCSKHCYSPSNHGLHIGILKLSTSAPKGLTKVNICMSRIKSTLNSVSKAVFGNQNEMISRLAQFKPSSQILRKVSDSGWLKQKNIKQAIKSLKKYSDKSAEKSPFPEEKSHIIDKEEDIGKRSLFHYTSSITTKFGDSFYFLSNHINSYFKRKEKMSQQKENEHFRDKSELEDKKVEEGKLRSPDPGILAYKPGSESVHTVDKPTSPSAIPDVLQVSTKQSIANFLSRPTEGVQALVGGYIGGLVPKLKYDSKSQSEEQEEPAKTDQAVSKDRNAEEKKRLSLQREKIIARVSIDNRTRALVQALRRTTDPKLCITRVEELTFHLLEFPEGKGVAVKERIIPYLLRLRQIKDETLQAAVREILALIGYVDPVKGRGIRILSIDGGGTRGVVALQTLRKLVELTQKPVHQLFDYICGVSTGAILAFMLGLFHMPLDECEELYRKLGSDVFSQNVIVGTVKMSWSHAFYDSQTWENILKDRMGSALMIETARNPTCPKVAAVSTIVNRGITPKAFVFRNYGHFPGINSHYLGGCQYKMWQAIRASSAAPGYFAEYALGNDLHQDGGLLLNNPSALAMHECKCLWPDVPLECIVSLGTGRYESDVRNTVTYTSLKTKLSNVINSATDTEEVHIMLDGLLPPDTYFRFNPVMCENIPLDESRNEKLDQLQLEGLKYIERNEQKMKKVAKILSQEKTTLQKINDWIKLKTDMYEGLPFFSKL
An outline of the steps: as §1

T2 sequence (P14854 whole entry): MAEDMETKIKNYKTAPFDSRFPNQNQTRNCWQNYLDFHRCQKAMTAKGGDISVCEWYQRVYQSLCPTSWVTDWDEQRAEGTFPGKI
T1 sequence (Q96FX7 whole entry): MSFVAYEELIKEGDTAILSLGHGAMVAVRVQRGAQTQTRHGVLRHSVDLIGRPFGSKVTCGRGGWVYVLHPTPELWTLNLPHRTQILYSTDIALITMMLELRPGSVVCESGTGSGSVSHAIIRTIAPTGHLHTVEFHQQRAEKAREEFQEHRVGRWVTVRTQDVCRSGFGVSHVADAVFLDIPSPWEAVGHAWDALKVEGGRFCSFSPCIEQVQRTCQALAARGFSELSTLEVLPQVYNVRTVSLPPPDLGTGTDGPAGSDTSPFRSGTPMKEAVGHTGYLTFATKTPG

For `C=CC(=O)N1C[C@H](c2ccc(Br)cc2)[C@H]1C(=O)Nc1cccc2cccnc12` [MY-3A, (2S,3S)-1-acryloyl-3-(4-bromophenyl)-N-(quinolin-8-yl)azetidine-2-carboxamide], the “% engagement TRMT61A_C209” value on TRMT61A_C209 is listed as 18.75%. In addition, the “% engagement COX6B1_C54” value on COX6B1_C54 was 33.5%. Besides, at PLPPR2_C207, the “% engagement PLPPR2_C207” value is 46.5%. The “% engagement PNPLA8_C100” value on PNPLA8_C100 is reported as 48%.

With `C=CC(=O)N1C[C@@H](c2ccc(Br)cc2)[C@H]1C(=O)Nc1cccc2cccnc12` [MY-1A, (2S,3R)-1-acryloyl-3-(4-bromophenyl)-N-(quinolin-8-yl)azetidine-2-carboxamide], on TRMT61A_C209, the “% engagement TRMT61A_C209” value was 40.75%. In addition, the “% engagement COX6B1_C54” value at COX6B1_C54 is on record as 66.5%. On PLPPR2_C207, the “% engagement PLPPR2_C207” value stood at 30.5%. For the same compound, the “% engagement PNPLA8_C100” value at PNPLA8_C100 is on record as 67%.

`C=CC(=O)N1C[C@H](c2ccc(Br)cc2)[C@@H]1C(=O)Nc1cccc2cccnc12` [MY-1B, (2R,3S)-1-acryloyl-3-(4-bromophenyl)-N-(quinolin-8-yl)azetidine-2-carboxamide]: the “% engagement TRMT61A_C209” value at TRMT61A_C209 is 67%. Further, the “% engagement COX6B1_C54” value at COX6B1_C54 was 56%. On PLPPR2_C207, the “% engagement PLPPR2_C207” value came out at 31%. Moreover, the “% engagement PNPLA8_C100” value at PNPLA8_C100 came to 59.5%.

For `C=CC(=O)N1C[C@H](c2ccc(Br)cc2)[C@H]1C(=O)Nc1cccc2cccnc12` [MY-3B, (2S,3S)-1-acryloyl-3-(4-bromophenyl)-N-(quinolin-8-yl)azetidine-2-carboxamide], the “% engagement TRMT61A_C209” value on TRMT61A_C209 worked out at 56%. Besides, the “% engagement COX6B1_C54” value at COX6B1_C54 came to 36.5%. For the same compound, the “% engagement PLPPR2_C207” value at PLPPR2_C207 is reported as 71%. For the same compound, the “% engagement PNPLA8_C100” value on PNPLA8_C100 is given as 70.5%.
